Experimental data taken from patent US20240109881A1, “Heteroaryl Compounds as Ligand Directed Degraders of IRAK4” (Bristol-Myers Squibb Company, priority 2022, published 2024).
pEC50: −log10 of the molar value.

Biological target: T1, IRAK4 (Homo sapiens, UniProt Q9NWZ3)
T1 construct: endogenous in cells; host or cells: THP-1 cells
T1 sequence (Q9NWZ3 1-460): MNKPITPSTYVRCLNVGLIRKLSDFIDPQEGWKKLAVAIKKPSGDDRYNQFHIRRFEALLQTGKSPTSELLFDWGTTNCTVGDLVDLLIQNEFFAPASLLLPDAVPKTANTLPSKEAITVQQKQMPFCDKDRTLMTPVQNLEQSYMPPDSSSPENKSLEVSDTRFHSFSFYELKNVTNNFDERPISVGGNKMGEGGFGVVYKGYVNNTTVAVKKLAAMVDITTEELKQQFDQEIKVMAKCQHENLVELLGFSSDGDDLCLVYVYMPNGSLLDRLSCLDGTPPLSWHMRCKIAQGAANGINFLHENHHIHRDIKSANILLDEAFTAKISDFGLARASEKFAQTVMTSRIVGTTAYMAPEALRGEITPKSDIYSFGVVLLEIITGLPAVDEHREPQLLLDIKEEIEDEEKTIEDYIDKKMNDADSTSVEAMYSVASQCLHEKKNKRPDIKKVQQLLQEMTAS
Assay: ALE THP1 HTRF (Advanced Lipoxidation End Product THP1 Homogeneous Time Resolved Fluorescence)
Assay type: cell-based
Conditions: THP1 cells
Protocol: For Homogenous Time Resolved Fluorescence (HTRF) assays, a Cisbio HTRF kit was used, which included: Lysis Buffer #1 4×, Blocking Reagent #3 100×, 20× Antibody 1 (Anti-IRAK4 d2), 20× Antibody 2 (Anti-IRAK4 k), and Detection Buffer.
4× Lysis Buffer was stored at 4° C. For use as 1× Lysis buffer, the 4× solution was diluted with de-ionized water (distilled water, Gibco Cat. #15230279) and 100× Blocking Reagent in a 1:3:0.04 volume ratio.
20× Antibody Solution aliquots were stored in −80° C. and the Detection Buffer was stored in 4° C. For use as a 1× Antibody Solution, the 20× Antibody Solution aliquot was diluted with Detection Buffer in a 1:19 volume ratio.
Cells were lysed at room temperature for 45 min with shaking. A BCA protein assay was performed and normalization was conducted to the desired total protein concentration with 1× lysis buffer. Next, 1× Antibody Solutions were prepared by adding 380 μL Detection Buffer to 20 μL 20× Antibody Solution aliquots and mixing well. 1× Antibody Solutions were combined 1:1 and briefly vortexed. For control wells, 20 μL 1× anti IRAK4-k Antibody Solution was saved. The 384-well plate (ProxiPlate-384 Plus, Perkin Elmer Cat. #6008289) was loaded by adding 4 μL of the mixed Antibody Solution to empty wells using a single channel repeater. Using a multi-channel repeater, 16 μL lysate was added per well, and any bubbles that were formed were popped with 20 μL pipette tips and Kimwipe edges. In column 10, triplicates of each control was prepared. In wells A10, B10, and C10, buffer control was prepared by adding 16 μL Lysis Buffer and 4 μL Detection Buffer. In wells D10, E10, and F10, cryptate control was prepared by adding 16 μL Lysis Buffer, 2 μL Detection Buffer, and 2 μL 1× anti IRAK4-k Antibody Solution. In wells G10, H10, and I10, a negative control was prepared by adding 16 μL Lysis Buffer and 4 μL mixed Antibody Solution. The plate was sealed with a clear seal and covered with an aluminum lid. The plate was spun down at 800 g for 5 min and incubated in the dark at room temperature overnight. The next day, the plate was spun down at 800 g for 5 min. The samples were analyzed by a plate reader (Envision, PerkinElmer) using the Desnor 384 HTRF program.

| Compound | ALE THP1 HTRF YMIN [%] | pEC50 |
| --- | --- | --- |
| N#Cc1cnc2c(cnn2-c2cc(NC3CC3)c(C(=O)N[C@H]3CC[C@H](C4C[C@@H]4N4CCN(c5ccc(C6CCC(=O)NC6=O)cc5)CC4)CC3)cn2)c1 (single isomer, unassigned) [P-110] | 16.0 | 7.72 |
| N#Cc1cnc2c(cnn2-c2cc(NC3CC3)c(C(=O)N[C@H]3CC[C@H](CCN4CCC(c5ccc(C6(F)CCC(=O)NC6=O)cc5)CC4)CC3)cn2)c1 (single isomer, unassigned) [P-125] | 9.8 | 8.00 |
| N#Cc1cnc2c(cnn2-c2cc(NC3CC3)c(C(=O)N[C@H]3CC[C@H](CCN4CCC(c5ccc(C6(F)CCC(=O)NC6=O)cc5)CC4)CC3)cn2)c1 (single isomer, unassigned) [P-126] | 14.9 | 6.53 |
| C[C@H](C#N)Nc1cc(-n2ncc3cc(C#N)cnc32)ncc1C(=O)N[C@H]1CC[C@H](CCN2CCN(c3ccc(C4CCC(=O)NC4=O)cc3)CC2)CC1 (stereo in doubt) [P-128] | 14.7 | 7.33 |
| N#Cc1cnc2c(cnn2-c2cc(NC3CCCC3)c(C(=O)NC3CCC(C(=O)N4CCN(c5ccc6c(c5)C(=O)N(C5CCC(=O)NC5=O)C6)CC4)CC3)cn2)c1 (stereo not shown) [P-10] | 34.8 | 7.06 |
| C[C@@H]1CN(c2ccc3c(c2)C(=O)N(C2CCC(=O)NC2=O)C3=O)C[C@H](C)N1C(=O)C1CCC(NC(=O)c2cnc(-n3ncc4cc(C#N)cnc43)cc2NC2CCCC2)CC1 (stereo partly shown) [P-13] | 43.4 | 7.09 |
| N#Cc1cnc2c(cnn2-c2cc(NC3CCCC3)c(C(=O)NC3CCC(C(=O)N4CCC(c5ccc6c(c5)C(=O)N(C5CCC(=O)NC5=O)C6)CC4)CC3)cn2)c1 (stereo not shown) [P-14] | 24.0 | 7.02 |
| CC(C)Nc1cc(-n2ncc3cc(C#N)cnc32)ncc1C(=O)N[C@H]1CC[C@H](CN2CCN(c3ccc4c(c3)C(=O)N(C3CCC(=O)NC3=O)C4)CC2)CC1 (stereo partly shown) [P-15] | 31.8 | 7.59 |
| N#Cc1cnc2c(cnn2-c2cc(NC3CCCC3)c(-c3cn([C@H]4CC[C@H](NC(=O)C5CCN(c6ccc7c(c6)C(=O)N(C6CCC(=O)NC6=O)C7)CC5)CC4)nn3)cn2)c1 (stereo partly shown) [P-16, N-((1r,4r)-4-(4-(6-(5-cyano-1H-pyrazolo[3,4-b]pyridin-1-yl)-4-(cyclopentylamino)pyridin-3-yl)-1H-1,2,3-triazol-1-yl)cyclohexyl)-1-(2-(2,6-dioxopiperidin-3-yl)-3-oxoisoindolin-5-yl)piperidine-4-carboxamide] | 26.9 | 7.80 |
| CN(C(=O)C1CCN(c2ccc3c(c2)C(=O)N(C2CCC(=O)NC2=O)C3)CC1)C1CCC(n2cc(-c3cnc(-n4ncc5cc(C#N)cnc54)cc3NC3CCCC3)nn2)CC1 (stereo not shown) [P-19] | 38.0 | 7.77 |
| N#Cc1cnc2c(cnn2-c2cc(NC3CCCC3)c(C(=O)NC3CCC(C(=O)Nc4ccc(C(=O)Nc5ccc(C6CCC(=O)NC6=O)cc5)cc4)CC3)cn2)c1 (stereo not shown) [P-20] | 30.9 | 5.79 |
| C[C@@H]1CN(C(=O)C2CCC(NC(=O)c3cnc(-n4ncc5cc(C#N)cnc54)cc3NC3CCCC3)CC2)CCN1c1ccc2c(c1)C(=O)N(C1CCC(=O)NC1=O)C2=O (stereo partly shown) [P-21] | 40.3 | 7.66 |
| N#Cc1cnc2c(cnn2-c2cc(NC3CC3)c(C(=O)NC3CCC(C(=O)N4CCN(c5ccc6c(c5)C(=O)N(C5CCC(=O)NC5=O)C6)CC4)CC3)cn2)c1 (stereo not shown) [P-22] | 20.0 | 5.96 |
| N#Cc1cnc2c(cnn2-c2cc(NC3CCCC3)c(C(=O)NC3CCC(CC(=O)N4CCN(c5ccc(C6CCC(=O)NC6=O)cc5)CC4)CC3)cn2)c1 (stereo not shown) [P-23] | 34.8 | 7.70 |
| CC1(Nc2cc(-n3ncc4cc(C#N)cnc43)ncc2C(=O)NC2CCC(C(=O)N3CCN(c4ccc5c(c4)C(=O)N(C4CCC(=O)NC4=O)C5)CC3)CC2)CC1 (stereo not shown) [P-25] | 20.1 | 7.92 |
| CC(C)(C)Nc1cc(-n2ncc3cc(C#N)cnc32)ncc1C(=O)NC1CCC(C(=O)N2CCN(c3ccc4c(c3)C(=O)N(C3CCC(=O)NC3=O)C4)CC2)CC1 (stereo not shown) [P-26] | 22.3 | 7.62 |
| CN(C1CCN(c2ccc3c(c2)C(=O)N(C2CCC(=O)NC2=O)C3)CC1)[C@H]1CC[C@H](n2cc(-c3cnc(-n4ncc5cc(C#N)cnc54)cc3NC3CCCC3)nn2)CC1 (stereo partly shown) [P-27] | 28.4 | 7.40 |
| N#Cc1cnc2c(cnn2-c2cc(NC3CCCC3)c(C(=O)NC3CCC(C(=O)NC4CCN(c5ccc(C6CCC(=O)NC6=O)cc5)CC4)CC3)cn2)c1 (stereo not shown) [P-28] | 36.6 | 6.84 |

The remaining lines, values ahead:

| ALE THP1 HTRF YMIN [%] | pEC50 | Compound |
| --- | --- | --- |
| 32.7 | 7.01 | O=C1CCC(N2C(=O)c3ccc(N4CCN(C(=O)C5CCC(NC(=O)c6cnc(Nc7ccc8ncsc8c7)cc6NC6CCCC6)CC5)CC4)cc3C2=O)C(=O)N1 (stereo not shown) [P-2] |
| 35.6 | 6.56 | O=C1CCC(N2C(=O)c3ccc(N4CCN(C[C@H]5CC[C@H](NC(=O)c6cnc(Nc7ccc8ncsc8c7)cc6NC6CCCC6)CC5)CC4)cc3C2=O)C(=O)N1 (stereo partly shown) [P-3, 6-(1,3-benzothiazol-6-ylamino)-4-(cyclopentylamino)-N-[4-[[4-[2-(2,6-dioxo-3-piperidyl)-1,3-dioxo-isoindolin-5-yl]piperazin-1-yl]methyl]cyclohexyl]pyridine-3-carboxamide] |
| 35.8 | 7.33 | CS(=O)(=O)N1CCC(Nc2cc(Nc3ccc4ncsc4c3)ncc2C(=O)NC2CCC(C(=O)N3CCN(c4ccc5c(c4)C(=O)N(C4CCC(=O)NC4=O)C5=O)CC3)CC2)CC1 (stereo not shown) [P-4, 6-(1,3-benzothiazol-6-ylamino)-N-[4-[4-[2-(2,6-dioxo-3-piperidyl)-1,3-dioxo-isoindolin-5-yl]piperazine-1-carbonyl]cyclohexyl]-4-[(1-methylsulfonyl-4-piperidyl)amino]pyridine-3-carboxamide] |
| 17.1 | 7.27 | O=C1CCC(N2C(=O)c3ccc(N4CCC(C(=O)NC5CCC(n6cc(-c7cnc(Nc8ccc9ncsc9c8)cc7NC7CCCC7)nn6)CC5)CC4)cc3C2=O)C(=O)N1 (stereo not shown) [P-5] |
| 30.4 | 7.74 | N#Cc1cnc2c(ccn2-c2cc(NC3CCCC3)c(C(=O)NC3CCC(C(=O)N4CCN(c5ccc6c(c5)C(=O)N(C5CCC(=O)NC5=O)C6=O)CC4)CC3)cn2)c1 (stereo not shown) [P-6] |
| 30.8 | 7.43 | O=C1CCC(N2C(=O)c3ccc(N4CCN(C(=O)C5CCC(NC(=O)c6cnc(Nc7ccn8nccc8n7)cc6NC6CCCC6)CC5)CC4)cc3C2=O)C(=O)N1 (stereo not shown) [P-7] |
| 40.8 | 7.57 | C[C@H]1CN(c2ccc3c(c2)C(=O)N(C2CCC(=O)NC2=O)C3=O)CCN1C(=O)C1CCC(NC(=O)c2cnc(Nc3ccc4ncsc4c3)cc2NC2CCCC2)CC1 (stereo partly shown) [P-8] |
| 20.0 | 7.60 | O=C1CCC(N2C(=O)c3ccc(N4CCN(C(=O)[C@H]5CC[C@H](n6cc(-c7cnc(Nc8ccc9ncsc9c8)cc7NC7CCCC7)nn6)CC5)CC4)cc3C2=O)C(=O)N1 (stereo partly shown) [P-9] |
| 47.5 | 9.00 | O=C1CCC(c2ccc(NCC3CCN(C(=O)C4CCC(NC(=O)c5cnc(Nc6ccc7ncsc7c6)cc5NC5CCCC5)CC4)CC3)cc2)C(=O)N1 (stereo not shown) [P-11] |
| 47.7 |  | O=C1CCC(N2C(=O)c3ccc(N4CCN(C(=O)C5CCC(NC(=O)c6cnc(Nc7ccc8ncoc8c7)cc6NC6CCCC6)CC5)CC4)cc3C2=O)C(=O)N1 (stereo not shown) [P-12] |
| 24.6 | 7.89 | N#Cc1cnc2c(cnn2-c2cc(NC3CCCC3)c(C(=O)N[C@H]3CC[C@H](CN4CCN(c5ccc6c(c5)C(=O)N(C5CCC(=O)NC5=O)C6)CC4)CC3)cn2)c1 (stereo partly shown) [P-17] |
| 36.9 | 7.43 | N#Cc1cnc2c(cnn2-c2cc(NC3CCCC3)c(C(=O)N[C@H]3CC[C@H](CN4CCN(c5ccc6c(c5)C(=O)N(C5CCC(=O)NC5=O)C6=O)CC4)CC3)cn2)c1 (stereo partly shown) [P-18] |
| 35.3 | 6.49 | N#Cc1cnc2c(cnn2-c2cc(NC3CCCC3)c(C(=O)N[C@H]3CC[C@H](CN4CCN(c5ccc6c(c5)C(=O)N(C5CCC(=O)NC5=O)C6)CC4)CC3)cn2)c1 (stereo partly shown) [P-24] |
